Assay results taken from patent US20250255867A1 (Kadmon Corporation, LLC, priority 2022, published 2025).

Conditions: Cohort 2 200 mg BID
Experimental: All responses were assessed by the investigators.
Reported Adverse Events. […] All-cause mortality data collected during the study were assessed for all enrolled participants. Disease progression related death was not reported as AE.
Number of Participants With Treatment-emergent Adverse Events (TEAEs), and Treatment-emergent Serious Adverse Events (TESAEs). […] TEAEs included both SAEs and non-SAEs. […] Analysis was performed on safety population which included all participants who received at least 1 dose of study medication.

CC(C)NC(=O)COc1cccc(-c2nc(Nc3ccc4[nH]ncc4c3)c3ccccc3n2)c1 [Belumosudil, 2-{3-[4-(1H-indazol-5-ylamino)-2-quinazolinyl]phenoxy}-N-(propan-2-yl) acetamide]
Oedema: # Events: 1
Oedema: Affected/At Risk: 1/16
Oedema: Affected/At Risk (%): (6.25%)
Oesophageal ulcer: # Events: 1
Oesophageal ulcer: Affected/At Risk: 1/16
Oesophageal ulcer: Affected/At Risk (%): (6.25%)
Oral candidiasis: # Events: 1
Oral candidiasis: Affected/At Risk: 1/16
Oral candidiasis: Affected/At Risk (%): (6.25%)
Oropharyngeal pain: # Events: 0
Oropharyngeal pain: Affected/At Risk: 0/16
Oropharyngeal pain: Affected/At Risk (%): (0%)
Orthopnoea: # Events: 0
Orthopnoea: Affected/At Risk: 0/16
Orthopnoea: Affected/At Risk (%): (0%)
Osteonecrosis: # Events: 0
Osteonecrosis: Affected/At Risk: 0/16
Osteonecrosis: Affected/At Risk (%): (0%)
Osteopenia: # Events: 1
Osteopenia: Affected/At Risk: 1/16
Osteopenia: Affected/At Risk (%): (6.25%)
Osteoporosis: # Events: 1
Osteoporosis: Affected/At Risk: 1/16
Osteoporosis: Affected/At Risk (%): (6.25%)
Overdose: # Events: 0
Overdose: Affected/At Risk: 0/16
Overdose: Affected/At Risk (%): (0%)
Pain in extremity: # Events: 3
Pain in extremity: Affected/At Risk: 2/16
Pain in extremity: Affected/At Risk (%): (12.5%)
Pain: # Events: 0
Pain: Affected/At Risk: 0/16
Pain: Affected/At Risk (%): (0%)
Palpitations: # Events: 0
Palpitations: Affected/At Risk: 0/16
Palpitations: Affected/At Risk (%): (0%)
Paraesthesia: # Events: 1
Paraesthesia: Affected/At Risk: 1/16
Paraesthesia: Affected/At Risk (%): (6.25%)
Participants with TEAE: 16 (100%) participants
Participants with TESAE: 6 (38%) participants
Pericardial effusion: # Events: 0
Pericardial effusion: Affected/At Risk: 0/16
Pericardial effusion: Affected/At Risk (%): (0%)
Peripheral coldness: # Events: 0
Peripheral coldness: Affected/At Risk: 0/16
Peripheral coldness: Affected/At Risk (%): (0%)
Peripheral sensory neuropathy: # Events: 1
Peripheral sensory neuropathy: Affected/At Risk: 1/16
Peripheral sensory neuropathy: Affected/At Risk (%): (6.25%)
Phlebitis: # Events: 1
Phlebitis: Affected/At Risk: 1/16
Phlebitis: Affected/At Risk (%): (6.25%)
Photophobia: # Events: 1
Photophobia: Affected/At Risk: 1/16
Photophobia: Affected/At Risk (%): (6.25%)
Platelet count decreased: # Events: 0
Platelet count decreased: Affected/At Risk: 0/16
Platelet count decreased: Affected/At Risk (%): (0%)
Pleural effusion: # Events: 0
Pleural effusion: Affected/At Risk: 0/16
Pleural effusion: Affected/At Risk (%): (0%)
Pneumonia respiratory syncytial viral: # Events: 1
Pneumonia respiratory syncytial viral: Affected/At Risk: 1/16
Pneumonia respiratory syncytial viral: Affected/At Risk (%): (6.25%)
Pneumonia: # Events: 3
Pneumonia: Affected/At Risk: 3/16
Pneumonia: Affected/At Risk (%): (18.75%)
Pollakiuria: # Events: 0
Pollakiuria: Affected/At Risk: 0/16
Pollakiuria: Affected/At Risk (%): (0%)
Presyncope: # Events: 3
Presyncope: Affected/At Risk: 3/16
Presyncope: Affected/At Risk (%): (18.75%)
Productive cough: # Events: 7
Productive cough: Affected/At Risk: 2/16
Productive cough: Affected/At Risk (%): (12.5%)
Proteinuria: # Events: 1
Proteinuria: Affected/At Risk: 1/16
Proteinuria: Affected/At Risk (%): (6.25%)
Pruritus: # Events: 4
Pruritus: Affected/At Risk: 2/16
Pruritus: Affected/At Risk (%): (12.5%)
Pseudomonas infection: # Events: 2
Pseudomonas infection: Affected/At Risk: 1/16
Pseudomonas infection: Affected/At Risk (%): (6.25%)
Pulmonary mass: # Events: 1
Pulmonary mass: Affected/At Risk: 1/16
Pulmonary mass: Affected/At Risk (%): (6.25%)
Pyrexia: # Events: 6
Pyrexia: Affected/At Risk: 3/16
Pyrexia: Affected/At Risk (%): (18.75%)
Rash erythematous: # Events: 1
Rash erythematous: Affected/At Risk: 1/16
Rash erythematous: Affected/At Risk (%): (6.25%)
Rash maculo-papular: # Events: 0
Rash maculo-papular: Affected/At Risk: 0/16
Rash maculo-papular: Affected/At Risk (%): (0%)
Rash pustular: # Events: 1
Rash pustular: Affected/At Risk: 1/16
Rash pustular: Affected/At Risk (%): (6.25%)
Rash: # Events: 1
Rash: Affected/At Risk: 1/16
Rash: Affected/At Risk (%): (6.25%)
Red blood cells urine positive: # Events: 1
Red blood cells urine positive: Affected/At Risk: 1/16
Red blood cells urine positive: Affected/At Risk (%): (6.25%)
Renal failure: # Events: 1
Renal failure: Affected/At Risk: 1/16
Renal failure: Affected/At Risk (%): (6.25%)
Respiratory syncytial virus infection: # Events: 1
Respiratory syncytial virus infection: Affected/At Risk: 1/16
Respiratory syncytial virus infection: Affected/At Risk (%): (6.25%)
Respiratory tract infection fungal: # Events: 0
Respiratory tract infection fungal: Affected/At Risk: 0/16
Respiratory tract infection fungal: Affected/At Risk (%): (0%)
Respiratory tract infection: # Events: 0
Respiratory tract infection: Affected/At Risk: 0/16
Respiratory tract infection: Affected/At Risk (%): (0%)
Restless legs syndrome: # Events: 1
Restless legs syndrome: Affected/At Risk: 1/16
Restless legs syndrome: Affected/At Risk (%): (6.25%)
Rosacea: # Events: 1
Rosacea: Affected/At Risk: 1/16
Rosacea: Affected/At Risk (%): (6.25%)
SAE Abdominal wall haematoma, # events: 0
SAE Abdominal wall haematoma, affected/at risk: 0/16
SAE Acute kidney injury, # events: 1
SAE Acute kidney injury, affected/at risk: 1/16
SAE Acute lymphocytic leukaemia recurrent, # events: 0
SAE Acute lymphocytic leukaemia recurrent, affected/at risk: 0/16
SAE Acute respiratory failure, # events: 0
SAE Acute respiratory failure, affected/at risk: 0/16
SAE Anaphylactic reaction, # events: 0
SAE Anaphylactic reaction, affected/at risk: 0/16
SAE Bacteraemia, # events: 1
SAE Bacteraemia, affected/at risk: 1/16
SAE Cardiac arrest, # events: 0
SAE Cardiac arrest, affected/at risk: 0/16
SAE Cellulitis, # events: 1
SAE Cellulitis, affected/at risk: 1/16
SAE Chronic graft versus host disease in skin, # events: 1
SAE Chronic graft versus host disease in skin, affected/at risk: 1/16
SAE Citrobacter infection, # events: 1
SAE Citrobacter infection, affected/at risk: 1/16
SAE Dyspnoea, # events: 1
SAE Dyspnoea, affected/at risk: 1/16
SAE Embolism, # events: 1
SAE Embolism, affected/at risk: 1/16
SAE Febrile neutropenia, # events: 0
SAE Febrile neutropenia, affected/at risk: 0/16
SAE Graft versus host disease in lung, # events: 0
SAE Graft versus host disease in lung, affected/at risk: 0/16
SAE Hypoxia, # events: 0
SAE Hypoxia, affected/at risk: 0/16
SAE Influenza A virus test positive, # events: 0
SAE Influenza A virus test positive, affected/at risk: 0/16
SAE Influenza like illness, # events: 0
SAE Influenza like illness, affected/at risk: 0/16
SAE Lacunar infarction, # events: 1
SAE Lacunar infarction, affected/at risk: 1/16
SAE Leukaemia recurrent, # events: 0
SAE Leukaemia recurrent, affected/at risk: 0/16
SAE Lipomatosis, # events: 0
SAE Lipomatosis, affected/at risk: 0/16
SAE Metastases to meninges, # events: 0
SAE Metastases to meninges, affected/at risk: 0/16
SAE Muscular weakness, # events: 1
SAE Muscular weakness, affected/at risk: 1/16
SAE Myelodysplastic syndrome, # events: 0
SAE Myelodysplastic syndrome, affected/at risk: 0/16
SAE Non-cardiac chest pain, # events: 2
SAE Non-cardiac chest pain, affected/at risk: 1/16
SAE Obliterative bronchiolitis, # events: 0
SAE Obliterative bronchiolitis, affected/at risk: 0/16
SAE Pericardial effusion, # events: 0
SAE Pericardial effusion, affected/at risk: 0/16
SAE Pleural effusion, # events: 0
SAE Pleural effusion, affected/at risk: 0/16
SAE Pneumonia viral, # events: 0
SAE Pneumonia viral, affected/at risk: 0/16
SAE Pneumonia, # events: 1
SAE Pneumonia, affected/at risk: 1/16
SAE Pregnancy of partner, # events: 0
SAE Pregnancy of partner, affected/at risk: 0/16
SAE Proteinuria, # events: 0
SAE Proteinuria, affected/at risk: 0/16
SAE Respirovirus test positive, # events: 1
SAE Respirovirus test positive, affected/at risk: 1/16
SAE Small intestinal obstruction, # events: 0
SAE Small intestinal obstruction, affected/at risk: 0/16
SAE Stenotrophomonas infection, # events: 1
SAE Stenotrophomonas infection, affected/at risk: 1/16
SAE Urinary retention, # events: 0
SAE Urinary retention, affected/at risk: 0/16
SAE Urinary tract infection, # events: 1
SAE Urinary tract infection, affected/at risk: 1/16
SAE Varicella zoster virus infection, # events: 0
SAE Varicella zoster virus infection, affected/at risk: 0/16
SAE total, affected/at risk: 6/16
Sinus pain: # Events: 0
Sinus pain: Affected/At Risk: 0/16
Sinus pain: Affected/At Risk (%): (0%)
Sinusitis: # Events: 4
Sinusitis: Affected/At Risk: 2/16
Sinusitis: Affected/At Risk (%): (12.5%)
Skin abrasion: # Events: 0
Skin abrasion: Affected/At Risk: 0/16
Skin abrasion: Affected/At Risk (%): (0%)
Skin lesion: # Events: 1
Skin lesion: Affected/At Risk: 1/16
Skin lesion: Affected/At Risk (%): (6.25%)
Skin papilloma: # Events: 0
Skin papilloma: Affected/At Risk: 0/16
Skin papilloma: Affected/At Risk (%): (0%)
Spinal compression fracture: # Events: 0
Spinal compression fracture: Affected/At Risk: 0/16
Spinal compression fracture: Affected/At Risk (%): (0%)
Squamous cell carcinoma of skin: # Events: 2
Squamous cell carcinoma of skin: Affected/At Risk: 2/16
Squamous cell carcinoma of skin: Affected/At Risk (%): (12.5%)
Stomatitis: # Events: 1
Stomatitis: Affected/At Risk: 1/16
Stomatitis: Affected/At Risk (%): (6.25%)
Superior vena cava syndrome: # Events: 2
Superior vena cava syndrome: Affected/At Risk: 1/16
Superior vena cava syndrome: Affected/At Risk (%): (6.25%)
Tachycardia: # Events: 0
Tachycardia: Affected/At Risk: 0/16
Tachycardia: Affected/At Risk (%): (0%)
Tendonitis: # Events: 1
Tendonitis: Affected/At Risk: 1/16
Tendonitis: Affected/At Risk (%): (6.25%)
Testicular pain: # Events: 0
Testicular pain: Affected/At Risk: 0/16
Testicular pain: Affected/At Risk (%): (0%)
Testicular swelling: # Events: 0
Testicular swelling: Affected/At Risk: 0/16
Testicular swelling: Affected/At Risk (%): (0%)
Thoracic spinal stenosis: # Events: 0
Thoracic spinal stenosis: Affected/At Risk: 0/16
Thoracic spinal stenosis: Affected/At Risk (%): (0%)
Thrombocytopenia: # Events: 1
Thrombocytopenia: Affected/At Risk: 1/16
Thrombocytopenia: Affected/At Risk (%): (6.25%)
Thrombocytosis: # Events: 0
Thrombocytosis: Affected/At Risk: 0/16
Thrombocytosis: Affected/At Risk (%): (0%)
Tinea pedis: # Events: 1
Tinea pedis: Affected/At Risk: 1/16
Tinea pedis: Affected/At Risk (%): (6.25%)
Tooth fracture: # Events: 1
Tooth fracture: Affected/At Risk: 1/16
Tooth fracture: Affected/At Risk (%): (6.25%)
Total Other Adverse Events: Affected/At Risk: 16/16
Total Other Adverse Events: Affected/At Risk (%): (100%)
Transfusion reaction: # Events: 0
Transfusion reaction: Affected/At Risk: 0/16
Transfusion reaction: Affected/At Risk (%): (0%)
Tremor: # Events: 2
Tremor: Affected/At Risk: 1/16
Tremor: Affected/At Risk (%): (6.25%)
Type 2 diabetes mellitus: # Events: 0
Type 2 diabetes mellitus: Affected/At Risk: 0/16
Type 2 diabetes mellitus: Affected/At Risk (%): (0%)
Ulcerative keratitis: # Events: 1
Ulcerative keratitis: Affected/At Risk: 1/16
Ulcerative keratitis: Affected/At Risk (%): (6.25%)
Upper respiratory tract infection: # Events: 13
Upper respiratory tract infection: Affected/At Risk: 9/16
Upper respiratory tract infection: Affected/At Risk (%): (56.25%)
Upper-airway cough syndrome: # Events: 2
Upper-airway cough syndrome: Affected/At Risk: 2/16
Upper-airway cough syndrome: Affected/At Risk (%): (12.5%)
